Test [1] concerns Naïve CD4+ T cells, Th17 cells. Kind of test: CD4+ T cell differentiation under Th17 conditions (IL-17A, ELISA and FACS). The test is classed as cell-based, mice. As for the experimental part:
(§1) Naïve CD4^+ T cells were purified from mice spleens and lymph nodes using positive selection by magnetic beads (CD4 L3T4 Kit, Miltenyi Biotec, UK). The purified T cells were activated by plate-bound αCD3ε (1 μg/ml; 2C11) and αCD28 (3 μg/ml; 37.51) in the presence or absence of the compound of Example 1 or Cyclosporin A (Sigma Aldrich), and cultured for 72 hrs under Th1 conditions (IL-12 [20 ng/ml]+αIL-4 (11B1) [10 μg/ml]), 72 hrs under Th17 conditions (αIFNγ [10 μg/ml]+αIL-4 [5 μg/ml]+IL-6 [[…]]+TGFβ(5 ng/ml)), and 96 hrs under iTreg conditions (TGFβ (5 ng/ml)) at 37° C.
(§2) ELISA kits for mouse IFNγ and IL-17a were purchased from eBioscience (Thermo Fisher, UK) and performed in accordance to manufacturer's instructions using Corning® High Binding ELISA plates (Merck, CLS9018). All ELISAs were analysed using a Synergy MX microplate reader (BioTek).
(§3) Intracellular protein expression was evaluated by first restimulating the cells with phorbol-12-myristate 13-acetate (PMA)(10 ng/ml) (Sigma Aldrich), ionomycin (1 μg/ml) (Sigma Aldrich) and Brefeldin A (5 μg/ml) (eBioscience) for 4-6 hours at 37° C. […] Fc block (93) and all fluorescence dye labelled antibodies used αCD4 (GK1.5), αIFNγ (XMG1.2), αIL-17a (17B7), αFOXP3 (NRRF-30; FJK-16S) were purchased from eBiosciences (Thermo Fisher, UK). […]
Background: An ELISA detects its analyte on a solid surface through an enzyme-linked reagent.

In test [2] the test system is Naïve CD4+ T cells, Th1 cells. As to the kind of experiment: CD4+ T cell differentiation under Th1 conditions (IFNγ, ELISA and FACS). The test is classed as cell-based, mice. As for the experimental part:
as §1, §2, §3

With `CN1CCOc2c1c(N[C@H]1CC[C@@](C)(O)CC1)nn1c(-c3cccc(OC(F)(F)F)c3)nnc21` [Example 1, 1-Methyl-4-[6-methyl-3-(3-trifluoromethoxy-phenyl)-7,8-dihydro-6H-9-oxa-1,2,3a,4,6-pentaaza-cyclopenta[a]naphthalen-5-ylamino]-cyclohexanol], in test [1] (12.5 nM, 72 hrs Th17 conditions), the “pro-inflammatory Th17 responses” value was “significant suppression”. For the same molecule, in test [1] (at a range of concentrations, ELISA and FACS), the “Differentiation of Th17 cells in vitro as determined by the secretion of IL-17A” value was “inhibited”. Moreover, the “pro-inflammatory Th1 responses” value in test [2] (12.5 nM, 72 hrs Th1 conditions) is recorded as “significant suppression”. Besides, in test [2] (across a range of concentrations, ELISA and FACS), the “Differentiation of Th1 cells in vitro as determined by the secretion of IFNγ” value is “inhibited”.

The values above are taken from US20250042918A1, “COMPOUNDS” (Fundación Del Sector Públlco Estatal Centro Nacional De …, priority 2021, published 2025).
